Experiment in all cases: Antibacterial activity assay (MIC, broth dilution)
Holding throughout (assay type): cell-based
(Dilution methods test growth across graded concentrations, often in twofold steps.)

One test has as its system Staphylococcus aureus. The settings on record: for MIC: Staphylococcus aureus; for MIC SA USA300: Staphylococcus aureus USA 300 strain, broth microdilution.
Another test concerns Enterococcus faecalis. As to conditions: for MIC: Enterococcus faecalis; for MIC EF 15951: Enterococcus faecalis 15951, broth microdilution.
A further test has as its system Enterococcus faecium. As to conditions: Enterococcus faecium. The method, then: (§1) Determination of the Minimal Inhibitory Concentrations (MIC) by dilution was carried out by broth dilution according to CLSI standards. See CLSI, Methods for Dilution Antimicrobial Susceptibility Tests for Bacteria That Grow Aerobically; Approved Standard—Eighth Edition. 2009, the contents of which are hereby incorporated by reference. Briefly, the minimum inhibitory concentration MIC, is the lowest concentration of a compound that prevents visible growth of a bacterium, in other words at which it has bacteriostatic activity.
For these tests, cation-adjusted Mueller Hinton broth, containing 10% brain-heart infusion (BHI) was used. Concentrations (MIC) are given in μg/mL. The compound was […].
(§2) Compounds were tested for MIC by methods known in the art and described in CLSI, Methods for Dilution Antimicrobial Susceptibility Tests for Bacteria That Grow Aerobically; Approved Standard—Tenth Edition. CLSI document M07-A10. Wayne, Pa.: Clinical and Laboratory Standards Institute, 2015, which is hereby incorporated by reference for these methods.
(§3) Selected compounds also were tested by broth microdilution methods known in the art and described in CLSI, Methods for Dilution Antimicrobial Susceptibility Tests for Bacteria That Grow Aerobically; Approved Standard—Tenth Edition. CLSI document M07-A10. Wayne, Pa.: Clinical and Laboratory Standards Institute, 2015, which is hereby incorporated by reference. Structures of selected compounds in the tables are listed below.

In another test the test system is Acinetobacter baumannii. As to conditions: Acinetobacter baumannii; Table 16; CLSI M07-A10 dilution method; read-out: MIC A. baumannii. How it is done: as §1, §2, §3
Setting [1] is: Table 21, read-out: Staphylococcus aureus MIC.
The mark [2] stands for this setting: Table 21, read-out: Escherichia feacalis MIC.
Setting [3] is: cation-adjusted Mueller Hinton broth, 10% BHI, read-out: MIC E. faecium C110914.
Setting [4] is: cation-adjusted Mueller Hinton broth, 10% BHI, read-out: MIC E. faecium IH79985.
Where [5] appears, read: cation-adjusted Mueller Hinton broth, 10% BHI, read-out: MIC E. faecium S1559.
Setting [6] is: cation-adjusted Mueller Hinton broth, 10% BHI, read-out: MIC E. faecalis 51299.
Setting [7] is: cation-adjusted Mueller Hinton broth, 10% BHI, read-out: MIC E. faecalis 51575.
The mark [8] stands for this setting: cation-adjusted Mueller Hinton broth, 10% BHI, read-out: MIC E. faecalis C99707.
Setting [9] is: Table 16, CLSI M07-A10 dilution method, read-out: MIC E. faecium.
The mark [10] stands for this setting: Table 16, CLSI M07-A10 dilution method, read-out: MIC S. aureus.

The MIC is the lowest concentration found to suppress growth.

Where a name gives a salt, the structure may show the parent alone. Read-outs that look alike come from different tables or passages of the source.

Take `CN(CCC#N)c1ccc(/C=C/c2cc(-c3ccc(Br)cc3)cc(-c3ccc(Br)cc3)[o+]2)cc1.F[B-](F)(F)F`: the MIC in the test on Staphylococcus aureus (setting [1]) and in the test with Enterococcus faecalis (setting [2]) was > 64 µg/mL in each case.
On to `CN(C)c1ccc(/C=C/c2cc(-c3ccc(F)cc3)cc(-c3ccc(F)cc3)[n+]2C)cc1.[I-]` [Compound 2jc39-1, (E)-2-(4-(dimethylamino)styryl)-4,6-bis(4-fluorophenyl)-1-methylpyridin-1-ium iodide salt], for which the MIC SA USA300 against Staphylococcus aureus worked out at 4 µg/mL. This compound yielded an MIC EF 15951 in the test with Enterococcus faecalis of 4 µg/mL.
As to `CN(CCC#N)c1ccc(/C=C/c2cc(-c3ccc(F)cc3)cc(-c3ccc(F)cc3)[n+]2C)cc1.[I-]` [Compound 2jc39-2, (E)-2-(4-((2-cyanoethyl)(methyl)amino)styryl)-4,6-bis(4-fluorophenyl)-1-methylpyridin-1-ium iodide salt], in the test with Staphylococcus aureus, the MIC SA USA300 is 16 µg/mL. Further, the MIC EF 15951 with Enterococcus faecalis is 16 µg/mL.
As to `CN(C)c1ccc(/C=C/c2cc(-c3ccc(F)cc3)cc(-c3ccc(Br)cc3)[n+]2C)cc1.[I-]` [Compound 2jc39-3, (E)-2-(4-bromophenyl)-6-(4-(dimethylamino)styryl)-4-(4-fluorophenyl)-1-methylpyridin-1-ium iodide salt], in the test with Staphylococcus aureus, the MIC SA USA300 stood at 4 µg/mL. Besides, in the test on Enterococcus faecalis, the MIC EF 15951 was determined as 4 µg/mL.
Consider `CN(CCC#N)c1ccc(/C=C/c2cc(-c3ccc(F)cc3)cc(-c3ccc(Br)cc3)[n+]2C)cc1.[I-]` [Compound 2jc39-4], for which the MIC SA USA300 in the test on Staphylococcus aureus turned out to be 16 µg/mL. In the test with Enterococcus faecalis, this compound returned an MIC EF 15951 of 16 µg/mL.
Compound `CN(C)c1ccc(/C=C/c2cc(-c3ccc(Cl)cc3)cc(-c3ccc(F)cc3)[n+]2C)cc1.[I-]` [Compound 2jc43-1, (E)-4-(4-chlorophenyl)-2-(4-(dimethylamino)styryl)-6-(4-fluorophenyl)-1-methylpyridin-1-ium iodide salt] had an MIC SA USA300 in the test with Staphylococcus aureus of 4 µg/mL. In the test on Enterococcus faecalis, this compound registered an MIC EF 15951 of 2 µg/mL.
`CN(CCC#N)c1ccc(/C=C/c2cc(-c3ccc(Cl)cc3)cc(-c3ccc(F)cc3)[n+]2C)cc1.[I-]` [Compound 2jc43-2, (E)-4-(4-chlorophenyl)-2-(4-((2-cyanoethyl)(methyl)amino)styryl)-6-(4-fluorophenyl)-1-methylpyridin-1-ium iodide salt]: the MIC SA USA300 against Staphylococcus aureus was found to be 2 µg/mL. The same compound had an MIC EF 15951 in the test with Enterococcus faecalis of 2 µg/mL.
The compound `CN(C)c1ccc(/C=C/c2cc(-c3ccc(Cl)cc3)cc(-c3ccc(Br)cc3)[n+]2C)cc1.[I-]` [Compound 2jc43-3, (E)-2-(4-bromophenyl)-4-(4-chlorophenyl)-6-(4-(dimethylamino)styryl)-1-methylpyridin-1-ium iodide salt] showed an MIC SA USA300 against Staphylococcus aureus of 2 µg/mL. The compound further registered an MIC EF 15951 against Enterococcus faecalis of 2 µg/mL.
Take `CN(CCC#N)c1ccc(/C=C/c2cc(-c3ccc(Cl)cc3)cc(-c3ccc(Br)cc3)[n+]2C)cc1.[I-]` [Compound 2jc43-4, (E)-2-(4-bromophenyl)-4-(4-chlorophenyl)-6-(4-((2-cyanoethyl)(methyl)amino)styryl)-1-methylpyridin-1-ium iodide salt]: the MIC SA USA300 in the test with Staphylococcus aureus stood at 32 µg/mL. The same compound gave an MIC EF 15951 against Enterococcus faecalis of 16 µg/mL.
The compound `CN(C)c1ccc(/C=C/c2cc(-c3ccc(N(C)C)cc3)cc(-c3ccc(F)cc3)[n+]2C)cc1.[I-]` [Compound 3jc01-1, (E)-4-(4-(dimethylamino)phenyl)-2-(4-(dimethylamino)styryl)-6-(4-fluorophenyl)-1-methylpyridin-1-ium iodide salt] registered an MIC SA USA300 against Staphylococcus aureus of 2 µg/mL. Further, the MIC EF 15951 in the test on Enterococcus faecalis amounted to 1 µg/mL.
For the compound `CN(C)c1ccc(-c2cc(/C=C/c3ccc(N(C)CCC#N)cc3)[n+](C)c(-c3ccc(F)cc3)c2)cc1.[I-]` [Compound 3jc01-2, (E)-2-(4-((2-cyanoethyl)(methyl)amino)styryl)-4-(4-(dimethylamino)phenyl)-6-(4-fluorophenyl)-1-methylpyridin-1-ium iodide salt], the MIC SA USA300 against Staphylococcus aureus was found to be 32 µg/mL. For the same compound, in the test on Enterococcus faecalis, the MIC EF 15951 was 16 µg/mL.
In the same order, the values of `CN(C)c1ccc(/C=C/c2cc(-c3ccc(N(C)C)cc3)cc(-c3ccc(Br)cc3)[n+]2C)cc1.[I-]` [Compound 3jc01-3, (E)-2-(4-bromophenyl)-4-(4-(dimethylamino)phenyl)-6-(4-(dimethylamino)styryl)-1-methylpyridin-1-ium iodide salt] are 1 µg/mL and 1 µg/mL.
In turn, `CN(C)c1ccc(-c2cc(/C=C/c3ccc(N(C)CCC#N)cc3)[n+](C)c(-c3ccc(Br)cc3)c2)cc1.[I-]` [Compound 3jc01-4, (E)-2-(4-bromophenyl)-6-(4-((2-cyanoethyl)(methyl)amino)styryl)-4-(4-(dimethylamino)phenyl)-1-methylpyridin-1-ium iodide salt] gave an MIC SA USA300 against Staphylococcus aureus of 32 µg/mL. Besides, the MIC EF 15951 against Enterococcus faecalis worked out at 32 µg/mL.
With `CN(CCC#N)c1ccc(/C=C/c2cc(-c3ccc(N(C)CCC#N)cc3)cc(-c3ccc(F)cc3)[n+]2C)cc1.[I-]` [Compound 3jc01-6, (E)-4-(4-((2-cyanoethyl)(methyl)amino)phenyl)-2-(4-((2-cyanoethyl)(methyl)amino)styryl)-6-(4-fluorophenyl)-1-methylpyridin-1-ium iodide salt], the MIC SA USA300 in the test on Staphylococcus aureus came out at 1 µg/mL. Also, the MIC EF 15951 in the test with Enterococcus faecalis is 8 µg/mL.
For `CN(C)c1ccc(/C=C/c2cc(-c3ccc(N(C)CCC#N)cc3)cc(-c3ccc(Br)cc3)[n+]2C)cc1.[I-]` [Compound 3jc01-7], in the test with Staphylococcus aureus, the MIC SA USA300 stood at 1 µg/mL. In addition, the MIC EF 15951 with Enterococcus faecalis came to 2 µg/mL.
`CN(CCC#N)c1ccc(/C=C/c2cc(-c3ccc(N(C)CCC#N)cc3)cc(-c3ccc(Br)cc3)[n+]2C)cc1.[I-]` [Compound 3jc01-8] showed an MIC SA USA300 against Staphylococcus aureus of 1 µg/mL. In the test with Enterococcus faecalis, this compound came in with an MIC EF 15951 of 2 µg/mL.
`Cc1ccc(-c2cc(/C=C/C=C3/N(C)c4ccccc4C3(C)C)[o+]c(-c3ccc(C)cc3)c2)cc1` [Compound 6jc67A, 2,4-di-p-tolyl-6-((1E,3E)-3-(1,3,3-trimethylindolin-2-ylidene)prop-1-en-1-yl)pyrylium boron tetrafluoride salt]: the MIC was 1 µg/mL in the test with Enterococcus faecium (setting [3]); 2 µg/mL in the test on Enterococcus faecium (setting [4]); 1 µg/mL with Enterococcus faecium (setting [5]); 1 µg/mL in the test with Enterococcus faecalis (setting [6]); 1 µg/mL with Enterococcus faecalis (setting [7]); 1 µg/mL with Enterococcus faecalis (setting [8]).
Take `CCc1ccc(-c2cc(/C=C/c3cc4c5c(c3)CCCN5CCC4)[o+]c(-c3ccc(CC)cc3)c2)cc1` [Compound 6jc69-1, (E)-2,4-bis(4-ethylphenyl)-6-(2-(1,2,3,5,6,7-hexahydropyrido[3,2,1-ij]quinolin-9-yl)vinyl)pyrylium boron tetrafluoride salt]: the MIC with Enterococcus faecium (setting [3]) worked out at 4 µg/mL; with Enterococcus faecium (setting [4]), 8 µg/mL; in the test on Enterococcus faecium (setting [5]) it was 2 µg/mL; in the test on Enterococcus faecalis (setting [6]) it was 1 µg/mL; in the test on Enterococcus faecalis (setting [7]), 2 µg/mL; in the test on Enterococcus faecalis (setting [8]), 1 µg/mL.
Take `Cc1ccc(-c2cc(/C=C/c3cc4c5c(c3)CCCN5CCC4)[o+]c(-c3ccc(C)c(C)c3)c2)cc1C` [Compound 6jc69-3, (E)-2,4-bis(3,4-dimethylphenyl)-6-(2-(1,2,3,5,6,7-hexahydropyrido[3,2,1-ij]quinolin-9-yl)vinyl)pyrylium boron tetrafluoride salt]: the MIC with Enterococcus faecium (setting [3]) is 2 µg/mL; with Enterococcus faecium (setting [4]), 4 µg/mL; with Enterococcus faecium (setting [5]) it was 2 µg/mL; in the test with Enterococcus faecalis (setting [6]), 1 µg/mL; in the test with Enterococcus faecalis (setting [7]) it was 2 µg/mL; in the test with Enterococcus faecalis (setting [8]) it was 1 µg/mL.
Consider `CN(C)c1ccc(/C=C/c2cc(-c3ccc(Br)cc3)cc(-c3ccc(Br)cc3)[n+]2C)cc1.[I-]` [Compound 9, (E)-2,4-bis(4-bromophenyl)-6-(4-(dimethylamino)styryl)-1-methylpyridin-1-ium iodide], for which the MIC came to 8 µg/mL in the test on Enterococcus faecium (setting [9]), 1 µg/mL in the test with Staphylococcus aureus (setting [10]) and 8 µg/mL in the test with Acinetobacter baumannii.
`Cc1ccc(-c2cc(/C=C/c3ccc(N(C)C)cc3)[n+](C)c(-c3ccc(Br)cc3)c2)cc1` [Compound 9a]: the MIC was 4 µg/mL in the test on Enterococcus faecium (setting [9]), 0.5 µg/mL in the test with Staphylococcus aureus (setting [10]) and 4 µg/mL in the test with Acinetobacter baumannii.
Turning to `CN(CCC#N)c1ccc(/C=C/c2cc(-c3ccc(F)cc3)cc(-c3ccc(F)cc3)[o+]2)cc1.F[B-](F)(F)F` [drawing 385], the MIC with Staphylococcus aureus (setting [1]) and with Enterococcus faecalis (setting [2]) was > 64 µg/mL in each case.
For the compound “(E)-4-(4-((2-cyanoethyl)(methyl)amino)phenyl)-2-(4-(dimethylamino)styryl)-6-(4-fluorophenyl)-1-methylpyridin-1-ium iodide salt [Compound 3jc01-5]”, the MIC SA USA300 in the test with Staphylococcus aureus amounted to 1 µg/mL. This compound gave an MIC EF 15951 against Enterococcus faecalis of 4 µg/mL.

For the origin of these results see patent US10941114B2, “Small molecule lipid II inhibitors” (University Of Maryland, Baltimore, priority 2015, dated 2021).
